Among the data in patent publication US8148388B2, “2,4 (4,6) pyrimidine derivatives” (Janssen Pharmaceutica, N.V., priority 2004, dated 2012) are inhibition and IC50 values, retold here.

Each structure is given as a SMILES string.

Broadly, the inhibition is the share of the control response that was lost under treatment.

What all share (format): biochemical
For one test, the target named is Yes (h) (Homo sapiens, UniProt P07947). The experiment in a line: Yes human kinase assay (glass-fiber filter). As to conditions: test concentration of 10^−6M; read-out: C11 score (inhibition of Yes human). On the procedure:
(§1) In the glass-fiber filter technology the activity of the kinase of interest is measured using an appropriate substrate that is incubated with the aforementioned kinase protein in the presence of (^33P) radiolabeled ATP. (^33P) Phosphorylation of the substrate is subsequently measured as radioactivity bound on a glass fiber-filter.
(§2) All kinases are pre-diluted to a 10× working concentration prior to addition into the assay. The composition of the dilution buffer for each kinase is detailed below.
In a final reaction volume of 25 μl, Yes (h) (5-10 mU) is incubated with 8 mM MOPS pH 7.0, 0.2 mM EDTA, 0.1 mg/ml poly(Glu, Tyr) 4:1, 10 mM MgAcetate and [γ-^33P-ATP] (specific activity approx. […], concentration as required). The reaction is initiated by the addition of the MgATP mix. After incubation for 40 minutes at room temperature, the reaction is stopped by the addition of 5 μl of a 3% phosphoric acid solution. 10 μl of the reaction is then spotted onto a Filtermat A and washed three times for 5 minutes in 75 mM phosphoric acid and once in methanol prior to drying and scintillation counting.

In a further test the target is Fms (h) (Homo sapiens, UniProt P07333). The experiment in a line: Fms human kinase assay (glass-fiber filter). The note with it: test concentration of 10^−6M; read-out: C7 score (inhibition of Fms human). On the procedure:
(§3) The in vitro inhibition of a panel of kinases was assessed using either the glass-fiber filter technology as described by Davies, S. P. et al., Biochem J. (2000), 351; p. 95-105.
as §1, §2
In a final reaction volume of 25 μl, Fms (h) (5-10 mU) is incubated with 8 mM MOPS pH 7.0, 0.2 mM EDTA, 250 μM […], 10 mM MgAcetate and [γ-^33P-ATP] (specific activity approx. 500 cpm/pmol, concentration as required). The reaction is initiated by the addition of the MgATP mix. After incubation for 40 minutes at room temperature, the reaction is stopped by the addition of 5 μl of a 3% phosphoric acid solution. 10 μl of the reaction is then spotted onto a P30 filtermat and washed three times for 5 minutes in 75 mM phosphoric acid and once in methanol prior to drying and scintillation counting.

A further test concerns the target T1, EGFR-kinase domain (Homo sapiens, UniProt P00533).
T1 construct: 0.5 μg EGFR-kinase domain/well
The experiment in a line: In vitro inhibition of EGFR (Flash Plate assay). The note with it: full dose response 1.10^−6M to 1.10^−10M, read-out: C12 EGFR flash Score. On the procedure: The in vitro inhibition of EGFR was assessed using either the Flash Plate technology or the glass-fiber filter technology as described by Davies, S. P. et al., Biochem J. (2000), 351; p. 95-105. The Flash Plate technology is generally described by B. A. Brown et al. in High Throughput Screening (1997), p. 317-328. Editor(s): Devlin, John P. Publisher: Dekker, New York, N.Y.
In the Flash Plate EGFR kinase reaction assay, a kinase substrate consisting of biotinylated poly(L-glutamic acid-L-tyrosine) (poly(GT)biotin), is incubated with the aforementioned protein in the presence of (^33P) radiolabeled ATP. (^33P) phosphorylation of the substrate is subsequently measured as light energy emitted using a streptavidin-coated Flash Plate (PerkinElmer Life Sciences) by trapping and quantifying the binding of the biotin tagged and radiolabeled substrate.
The EGFR kinase reaction is performed at 30° C. for 60 minutes in a 96-well microtiter FlashPlate (PerkinElmer Life Sciences). For each of the tested compounds a full dose response 1.10^−6M to 1.10^−10M has been performed. IRESSA® and Tarceva™ (erlotinib) were used as reference compounds. The 100 μl reaction volume contains 54.5 mM TrisHCl pH 8.0, 10 mM MgCl2, 100 μM Na3VO4, 5.0 μM unlabeled ATP, 1 mM DTT, 0.009% BSA, 0.8 μCi AT^33P, 0.35 μg/well poly(GT)biotin and 0.5 μg EGFR-kinase domain/well.
The reaction is stopped by aspirating the reaction mixture and washing the plate 3× with 200 μl wash/stop buffer (PBS+100 mM EDTA). After the final wash step 200 μl of wash/stop buffer was added to each well and the amount of phosphorylated (^33P) Poly(GT)biotin determined by counting (30 sec/well) in a microtiterplate scintillation counter.

A further test concerns the target cSRC (h) (Homo sapiens, UniProt P12931). The experiment in a line: cSRC human kinase assay (glass-fiber filter). As to conditions: test concentration of 10^−6M; read-out: C3 score (inhibition of cSRC human). On the procedure:
(§4) The in vitro inhibition of a panel of kinases was assessed using either the glass-fiber filter technology as described by Davies, S. P. et al., Biochem J. […] In the glass-fiber filter technology the activity of the kinase of interest is measured using an appropriate substrate that is incubated with the aforementioned kinase protein in the presence of (^33P) radiolabeled ATP. (^33P) Phosphorylation of the substrate is subsequently measured as radioactivity bound on a glass fiber-filter. All kinases are pre-diluted to a 10× working concentration prior to addition into the assay. The composition of the dilution buffer for each kinase is detailed below. […] The reaction is initiated by the addition of the MgATP mix. […] 10 μl of the reaction is then spotted onto a P30 filtermat and washed three times for 5 minutes in 75 mM phosphoric acid and once in methanol prior to drying and scintillation counting.

In a further test the target is Lck (h) (Homo sapiens, UniProt P06239). As to the kind of experiment: Lck human kinase assay (glass-fiber filter). The note with it: test concentration of 10^−6M; read-out: C9 score (inhibition of Lck human). Here is the method:
as §4, with “below. [table]” for “below.”

For the next test, the target named is Flt3 (h) (Homo sapiens, UniProt P36888). The experiment in a line: Flt3 human kinase assay (glass-fiber filter). The note with it: test concentration of 10^−6M; read-out: C6 score (inhibition of Flt3 human). On the procedure: as §3, §1, §2
Flt3 (h), sequence (P36888 27-993): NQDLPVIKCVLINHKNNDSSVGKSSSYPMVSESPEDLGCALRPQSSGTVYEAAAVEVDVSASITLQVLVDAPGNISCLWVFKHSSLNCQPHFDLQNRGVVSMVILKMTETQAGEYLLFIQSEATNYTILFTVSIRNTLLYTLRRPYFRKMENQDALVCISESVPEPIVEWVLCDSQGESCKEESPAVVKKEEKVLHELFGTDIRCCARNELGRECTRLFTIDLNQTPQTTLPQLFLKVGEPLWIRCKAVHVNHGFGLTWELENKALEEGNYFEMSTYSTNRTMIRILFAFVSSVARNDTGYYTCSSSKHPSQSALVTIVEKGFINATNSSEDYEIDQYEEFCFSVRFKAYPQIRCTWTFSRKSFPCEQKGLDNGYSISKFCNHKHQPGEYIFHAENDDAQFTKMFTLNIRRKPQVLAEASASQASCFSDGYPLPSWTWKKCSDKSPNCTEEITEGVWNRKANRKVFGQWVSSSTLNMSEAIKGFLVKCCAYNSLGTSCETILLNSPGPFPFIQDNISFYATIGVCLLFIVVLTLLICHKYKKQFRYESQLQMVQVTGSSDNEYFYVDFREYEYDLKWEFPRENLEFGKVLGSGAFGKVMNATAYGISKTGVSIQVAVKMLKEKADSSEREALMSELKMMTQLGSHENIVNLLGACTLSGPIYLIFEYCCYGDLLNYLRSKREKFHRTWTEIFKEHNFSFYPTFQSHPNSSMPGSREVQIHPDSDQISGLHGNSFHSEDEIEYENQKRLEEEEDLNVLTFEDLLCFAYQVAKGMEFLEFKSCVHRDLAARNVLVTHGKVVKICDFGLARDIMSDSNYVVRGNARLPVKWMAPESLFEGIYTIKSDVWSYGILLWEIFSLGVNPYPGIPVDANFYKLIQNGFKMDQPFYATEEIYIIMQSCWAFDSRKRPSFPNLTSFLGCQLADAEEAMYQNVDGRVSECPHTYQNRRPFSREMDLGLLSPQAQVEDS
In a final reaction volume of 25 μl, Flt3 (h) (5-10 mU) is incubated with 8 mM MOPS pH 7.0, 0.2 mM EDTA, 50 μM […], 10 mM MgAcetate and [γ-^33P-ATP] (specific activity approx. 500 cpm/pmol, concentration as required). The reaction is initiated by the addition of the MgATP mix. After incubation for 40 minutes at room temperature, the reaction is stopped by the addition of 5 μl of a 3% phosphoric acid solution. 10 μl of the reaction is then spotted onto a P30 filtermat and washed three times for 5 minutes in 75 mM phosphoric acid and once in methanol prior to drying and scintillation counting.

T1 sequence (P00533 712-979 limits assumed): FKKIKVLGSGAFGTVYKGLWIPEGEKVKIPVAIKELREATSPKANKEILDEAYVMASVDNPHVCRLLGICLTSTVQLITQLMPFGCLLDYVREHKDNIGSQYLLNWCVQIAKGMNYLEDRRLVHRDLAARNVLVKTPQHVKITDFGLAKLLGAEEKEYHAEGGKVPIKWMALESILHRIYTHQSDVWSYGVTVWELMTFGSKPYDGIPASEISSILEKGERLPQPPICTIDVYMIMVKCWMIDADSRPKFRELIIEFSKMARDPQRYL
Fms (h), sequence (P07333 20-972): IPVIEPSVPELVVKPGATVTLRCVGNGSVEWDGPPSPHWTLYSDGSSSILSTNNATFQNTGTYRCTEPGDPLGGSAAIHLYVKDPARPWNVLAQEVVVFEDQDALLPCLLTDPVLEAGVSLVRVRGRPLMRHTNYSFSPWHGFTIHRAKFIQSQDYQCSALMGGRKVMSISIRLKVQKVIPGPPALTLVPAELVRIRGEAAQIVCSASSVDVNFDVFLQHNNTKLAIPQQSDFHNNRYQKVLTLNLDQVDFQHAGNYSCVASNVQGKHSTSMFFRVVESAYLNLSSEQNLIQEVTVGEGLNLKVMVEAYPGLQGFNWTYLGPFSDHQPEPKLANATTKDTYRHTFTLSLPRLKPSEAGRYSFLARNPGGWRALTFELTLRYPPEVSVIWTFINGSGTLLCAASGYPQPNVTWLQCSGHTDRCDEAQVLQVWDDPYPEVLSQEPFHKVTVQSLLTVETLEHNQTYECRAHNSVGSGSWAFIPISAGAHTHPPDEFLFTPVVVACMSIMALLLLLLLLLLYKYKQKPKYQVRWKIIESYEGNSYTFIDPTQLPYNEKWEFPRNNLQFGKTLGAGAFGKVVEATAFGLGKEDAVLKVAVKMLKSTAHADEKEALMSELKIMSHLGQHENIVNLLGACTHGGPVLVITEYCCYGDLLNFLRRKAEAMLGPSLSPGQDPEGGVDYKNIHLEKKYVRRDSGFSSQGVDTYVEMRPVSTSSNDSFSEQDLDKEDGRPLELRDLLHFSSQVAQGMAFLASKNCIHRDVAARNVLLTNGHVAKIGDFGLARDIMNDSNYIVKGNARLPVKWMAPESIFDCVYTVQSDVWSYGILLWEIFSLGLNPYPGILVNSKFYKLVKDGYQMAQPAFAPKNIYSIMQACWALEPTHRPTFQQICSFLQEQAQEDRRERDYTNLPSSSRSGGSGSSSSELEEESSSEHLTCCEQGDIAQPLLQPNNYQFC
Yes (h), sequence (P07947 whole entry): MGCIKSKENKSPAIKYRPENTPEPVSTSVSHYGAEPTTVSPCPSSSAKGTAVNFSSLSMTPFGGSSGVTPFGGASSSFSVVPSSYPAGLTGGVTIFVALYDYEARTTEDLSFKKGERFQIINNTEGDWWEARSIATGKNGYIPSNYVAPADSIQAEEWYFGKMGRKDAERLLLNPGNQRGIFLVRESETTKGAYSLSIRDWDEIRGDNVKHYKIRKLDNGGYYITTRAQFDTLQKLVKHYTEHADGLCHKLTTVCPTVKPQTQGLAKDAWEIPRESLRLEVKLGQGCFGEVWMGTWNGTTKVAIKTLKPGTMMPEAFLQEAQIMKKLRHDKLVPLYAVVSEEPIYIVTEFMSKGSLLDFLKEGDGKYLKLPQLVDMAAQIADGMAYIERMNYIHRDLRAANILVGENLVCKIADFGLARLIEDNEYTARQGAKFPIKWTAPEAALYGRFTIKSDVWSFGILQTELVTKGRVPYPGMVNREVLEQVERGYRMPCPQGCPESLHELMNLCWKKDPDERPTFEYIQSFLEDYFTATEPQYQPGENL
cSRC (h), sequence (P12931 whole entry): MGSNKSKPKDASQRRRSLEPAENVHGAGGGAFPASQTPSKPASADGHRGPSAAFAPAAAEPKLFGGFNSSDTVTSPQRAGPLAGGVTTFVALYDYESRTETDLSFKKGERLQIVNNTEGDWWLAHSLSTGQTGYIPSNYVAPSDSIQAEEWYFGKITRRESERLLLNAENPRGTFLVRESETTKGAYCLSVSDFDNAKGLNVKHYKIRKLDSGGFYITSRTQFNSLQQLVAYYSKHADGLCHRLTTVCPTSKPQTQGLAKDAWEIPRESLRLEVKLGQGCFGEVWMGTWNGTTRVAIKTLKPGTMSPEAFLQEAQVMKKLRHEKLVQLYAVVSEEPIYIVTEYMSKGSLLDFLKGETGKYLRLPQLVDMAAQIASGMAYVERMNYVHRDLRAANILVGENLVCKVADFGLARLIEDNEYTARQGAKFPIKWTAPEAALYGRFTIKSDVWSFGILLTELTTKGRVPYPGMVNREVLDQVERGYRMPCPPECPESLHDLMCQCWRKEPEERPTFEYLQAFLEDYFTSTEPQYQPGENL
Lck (h), sequence (P06239 whole entry): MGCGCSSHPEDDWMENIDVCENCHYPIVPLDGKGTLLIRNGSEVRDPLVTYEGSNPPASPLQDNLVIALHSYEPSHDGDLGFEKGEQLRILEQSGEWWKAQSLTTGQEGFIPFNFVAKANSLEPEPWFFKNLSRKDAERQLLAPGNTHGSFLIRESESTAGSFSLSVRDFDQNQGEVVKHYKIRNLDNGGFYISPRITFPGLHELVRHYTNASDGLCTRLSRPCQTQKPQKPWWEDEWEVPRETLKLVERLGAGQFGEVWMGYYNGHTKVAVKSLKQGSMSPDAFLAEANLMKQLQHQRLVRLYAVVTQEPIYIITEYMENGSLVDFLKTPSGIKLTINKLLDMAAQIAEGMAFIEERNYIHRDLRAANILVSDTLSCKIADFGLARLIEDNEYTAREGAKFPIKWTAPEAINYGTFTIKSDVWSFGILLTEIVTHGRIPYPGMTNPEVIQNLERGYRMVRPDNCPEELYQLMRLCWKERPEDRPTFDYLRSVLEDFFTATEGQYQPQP

`O=C1CNC(=O)CNC(=O)c2cccc(c2)Nc2cc(ncn2)Nc2cccc(c2)CN1` [Compound 61]: the inhibition at 1 µM on Yes (h) was in the range of 10 to 30%; at Fms (h), 60 to 80%.

For `COc1ccc2cc1OCCNC(=O)CC(CC(C)C)NC(=O)COc1ccc(cc1)Nc1cc(ncn1)N2` (stereo not drawn) [Compound 141], the IC50 on EGFR-kinase domain was in the range of 1000 to 10000 nM.

For `O=C1COc2cccc(c2)Nc2nccc(n2)Nc2cccc(c2)OCCCN1` [Compound 29, 14,21-dioxa-2,4,8,18,28-pentaazatetracyclo[20.3.1.1~3,7~.1~9,13~]octacosa-1(26),3,5,7(28),9,11,13(27),22,24-nonaen-19-one], the inhibition at 1 µM at cSRC (h) was 10 to 30%; at Lck (h), 30 to 60%; at Yes (h), 60 to 80%; on Fms (h) it was 10 to 30%; at Flt3 (h), over 80%.

In the case of `COc1ccc2cc1OCCNC(=O)C1CCCN(C1)C(=O)COc1ccc(cc1)Nc1cc(ncn1)N2` (stereo not drawn) [Compound 140], at EGFR-kinase domain, the IC50 was in the range of 1000 to 10000 nM.

Consider `COc1ccc2cc1OCCNC(=O)CCN1CCC(CC1)N(C)Cc1cc(ccc1Cl)Nc1cc(ncn1)N2` [Compound 127], for which, at EGFR-kinase domain, the IC50 is 1000 to 10000 nM.

For `O=C1CCCCCCNC(=O)c2cccc(c2)Nc2cc(ncn2)Nc2cccc(c2)CN1` [Compound 57, 2,4,6,8,15,23-hexaazatetracyclo[23.3.1.1~3,7~.1~9,13~]hentriaconta-1(29),3,5,7(31),9,11,13(30),25,27-nonaene-14,22-dione], at Flt3 (h), the inhibition at 1 µM fell in the range of 30 to 60%.

Regarding `CN1Cc2cccc(c2)Nc2cc(ncn2)Nc2cccc(c2)OCCCCNC(=O)CCN2CCC1CC2` [Compound 196], at EGFR-kinase domain, the IC50 lay in the range of 1000 to 10000 nM.

`CC(C)C1NC(=O)c2cccc(c2)Nc2cc(ncn2)Nc2cccc(c2)CNC(=O)CNC1=O` (stereo not drawn) [Compound 60]: the inhibition at 1 µM on Yes (h) and at Fms (h) was 10 to 30% in each case.

On to `CCN1CC(=O)NCCCCCOc2ccccc2Nc2cc(ncn2)Nc2cccc(c2)C1` [Compound 190], for which the IC50 on EGFR-kinase domain fell in the range of 1000 to 10000 nM.

In the case of `COCC1NC(=O)COc2cccc(c2)Nc2cc(ncn2)Nc2cccc(c2)OCCCCCNC1=O` (stereo not drawn) [Compound 179], the IC50 at EGFR-kinase domain fell in the range of 1000 to 10000 nM.

For the molecule `O=C1COc2cccc(c2)Nc2cc(ncn2)Nc2cccc(c2)OCCCCCNC(=O)C(Cc2cccnc2)N1` (stereo not drawn) [Compound 180], the IC50 at EGFR-kinase domain is 1000 to 10000 nM.

For the molecule `COc1ccc2cc1OCCNC(=O)C1CCCCN1Cc1cc(ccc1Cl)Nc1cc(ncn1)N2` (racemic) [Compound 145], the IC50 on EGFR-kinase domain was 1000 to 10000 nM.

On to `CCN1CCNC(=O)C(CC2CCCCC2)NC(=O)COc2ccc(cc2)Nc2cc(ncn2)Nc2cccc(c2)C1` (stereo not drawn) [Compound 135], for which, on EGFR-kinase domain, the IC50 was in the range of 1000 to 10000 nM.

Regarding `CCN1CCC(=O)NCCOc2cc(ccc2OC)Nc2cc(ncn2)Nc2ccc(Cl)c(c2)C1` [Compound 113], the IC50 at EGFR-kinase domain was in the range of 1000 to 10000 nM.

For `COc1ccc2cc1OCCNC(=O)C(CCSC)NC(=O)COc1cccc(c1)Nc1cc(ncn1)N2` (stereo not drawn) [Compound 173], the IC50 on EGFR-kinase domain is 1000 to 10000 nM.

As for `CN1Cc2cccc(c2)Nc2cc(ncn2)Nc2ccccc2OCCCCCNC(=O)CCN2CCC1CC2` [Compound 186], on EGFR-kinase domain, the IC50 fell in the range of 1000 to 10000 nM.

Take `O=C1CCN(CCN2CCOCC2)Cc2cccc(c2)Nc2cc(ncn2)Nc2cccc(c2)OCCCCN1` [Compound 195]: the IC50 on EGFR-kinase domain was 1000 to 10000 nM.

`COc1ccc2cc1OCCNC(=O)C1CN(CCC1O)Cc1cc(ccc1Cl)Nc1cc(ncn1)N2` (stereo not drawn) [Compound 182]: the IC50 on EGFR-kinase domain is 1000 to 10000 nM.

`COc1ccc2cc1OCCNC(=O)CCCN(C)Cc1cc(ccc1Cl)Nc1cc(ncn1)N2` [Compound 111]: on EGFR-kinase domain, the IC50 fell in the range of 1000 to 10000 nM.

As for `CCN1CCNC(=O)C2CN(CCO2)C(=O)COc2ccc(cc2)Nc2cc(ncn2)Nc2cccc(c2)C1` (stereo not drawn) [Compound 136], the IC50 on EGFR-kinase domain was under 1000 nM.

Take `CCN1CC(=O)NCCOc2cc(ccc2OC)Nc2cc(ncn2)Nc2ccc(Cl)c(c2)C1` [Compound 183]: on EGFR-kinase domain, the IC50 lay in the range of 1000 to 10000 nM.
